Laboratory results taken from patent US8415357B2 (Canbas Co., Ltd., priority 2007, dated 2013).
Entries after “also recorded” stand apart in the source; their conditions may differ.

Key:
ARH-77 cells = experiment: Survival of SCID mice with xenografts of ARH-77 cells; settings: for cytotoxicity against normal cells (the mouse graft host): administered intraperitoneally or orally to SCID mice with ARH-77 xenografts
Procedure: For the experiment shown in FIG. 6, mice received 1.9×10^6 ARH-77 cells by intraperitoneal transplantation. […] Mice treated with dexamethasone (“Dexa”) received an intraperitoneal injection of 2 mg/kg dexamethasone. Vehicle treated control animals received intraperitoneal vehicle injection. Each injection was performed on day 1, day 2 and day 3 after transplantation of ARH-77 cells.
For the experiment shown in FIG. 7, mice received 0.8×10^6 ARH-77 cells by intraperitoneal transplantation.
For the experiment shown in FIG. 8, mice received 4.1×10^6 ARH-77 cells by intraperitoneal transplantation.

Jurkat cells = experiment: Adaptation to G2 cell cycle arrest (G1 increment) in X-ray pre-arrested Jurkat cells, flow cytometry; format: cell-based, human; settings: for IC50: Homo sapiens, Jurkat, 24 h, concentration causing half-maximal increase of % cells in G1 phase (G1 increment), Jurkat pre-arrested by 10 Gy X-ray, 24 hours with compound
Method in brief: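 Jurkat cells were G2-arrested by 10 Gy X-ray irradiation and held 24 h in 10% FCS/RPMI1640 at 37 °C. They were then exposed to compounds for a further 24 h. Propidium iodide staining and flow cytometry gave the %G1 cells, and IC50 (μM) is the concentration giving a half-maximal G1 increment.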

SMILES | IC50 (Jurkat cells; Table 3) [nM] | further results
CC1=C(CCC(=O)OC(C)(C)C)C(=O)N(Nc2ccc(C(F)(F)F)c(Cl)n2)C1=O [Compound S01860, tert-butyl 3-(1-{[6-chloro-5-(trifluoromethyl)(2-pyridyl)]amino}-4-methyl-2,5-dioxoazolin-3-yl) propanoate] |  | first decrease in survival, days after transplantation (ARH-77 cells; 0.8×10^6 ARH-77 cells i.p., single oral administration 750 mg/kg on Day 1): 70 days; survival at 85 days (ARH-77 cells; 0.8×10^6 ARH-77 cells i.p., single oral administration 750 mg/kg on Day 1, control about 20%): ~90%; cytotoxicity against normal cells (the mouse graft host) (ARH-77 cells): no detectable cytotoxicity against normal cells; IC50 (Jurkat cells; Table 2): 30 nM; percentage of cells in G1 phase (Jurkat cells; Jurkat cells pre-arrested at G2 by X-ray 10 Gy, 0.019 μM to 0.625 μM, 24 hours): dose-dependent increase in the percentage of cells in G1 phase; also recorded: significant increase in the number of G1 cells
CC1=C(C)C(=O)N(Nc2nc(Cl)c(C(F)(F)F)cc2Br)C1=O [Compound S01981, 1-{[3-bromo-6-chloro-5-(trifluoromethyl)(2-pyridyl)]amino}-3,4-dimethylazoline-2,5-dione] |  | IC50 (Jurkat cells; Table 2): 78 nM
CC1=C(CC(=O)OC(C)(C)C)C(=O)N(Nc2ccc(C(F)(F)F)c(Cl)n2)C1=O [Compound S02225, tert-butyl 2-(1-{[6-chloro-5-(trifluoromethyl) (2-pyridyl)]amino}-4-methyl-2,5-dioxoazolin-3-yl)acetate] | 30 | 
CC1=C(COCCC(C)C)C(=O)N(Nc2ccc(C(F)(F)F)c(Cl)n2)C1=O [Compound S03405, 1-{[6-chloro-5-(trifluoromethyl)(2-pyridyl)]amino}-4-methyl-3-[(3-methylbutoxy)methyl]azoline-2,5-dione] | < 19 | cytotoxicity against normal cells (the mouse graft host) (ARH-77 cells): no detectable cytotoxicity against normal cells
CCCCOCC1=C(C)C(=O)N(Nc2ccc(C(F)(F)F)c(Cl)n2)C1=O [Compound S03518, 3-(butoxymethyl)-1-{[6-chloro-5-(trifluoromethyl)(2-pyridyl)]amino}-4-methylazoline-2,5-dione] | 20 | cytotoxicity against normal cells (the mouse graft host) (ARH-77 cells): no detectable cytotoxicity against normal cells
CC1=C(COCCC(C)(C)C)C(=O)N(Nc2ccc(C(F)(F)F)c(Cl)n2)C1=O [Compound S03747, 3-[(3,3-dimethylbutoxy)methyl]-1-{[6-chloro-5-(trifluoromethyl) (2-pyridyl)]amino}-4-methylazoline-2,5-dione] | < 19 | cytotoxicity against normal cells (the mouse graft host) (ARH-77 cells): no detectable cytotoxicity against normal cells
CC1=C(COC(C)(C)C)C(=O)N(Nc2ccc(C(F)(F)F)c(Cl)n2)C1=O [Compound S03873, 4-[(tert-butoxy)methyl]-1-{[6-chloro-5-(trifluoromethyl)(2-pyridyl)]amino}-3-methylazoline-2,5-dione] | 20 | 
CC1=C(CCOCCC(C)C)C(=O)N(Nc2ccc(C(F)(F)F)c(Cl)n2)C1=O [Compound S03956, 1-{[6-chloro-5-(trifluoromethyl)(2-pyridyl)]amino}-4-methyl-3-[2-(3-methylbutoxy)ethyl]azoline-2,5-dione] | 156 | 
CC1=C(COC(C)CC(C)C)C(=O)N(Nc2ccc(C(F)(F)F)c(Cl)n2)C1=O (stereo not shown) [Compound S03964, 4-[(1,3-dimethylbutoxy)methyl]-1-{[6-chloro-5-(trifluoromethyl) (2-pyridyl)]amino}-3-methylazoline-2,5-dione] | 40 | 

Further lines, with some results ahead:

IC50 (Jurkat cells; Table 3) [nM] | SMILES | further results
40 | CCC(C)OC(=O)CCC1=C(C)C(=O)N(Nc2ccc(C(F)(F)F)c(Cl)n2)C1=O (stereo not shown) [Compound S02264, Methylpropyl 3-(1-{[6-chloro-5-(trifluoromethyl) (2-pyridyl)]amino}-4-methyl-2,5-dioxoazolin-3-yl) propanoate] | 
40 | CCOCC1=C(C)C(=O)N(Nc2ccc(C(F)(F)F)c(Cl)n2)C1=O [Compound S02366, 1-{[6-chloro-5-(trifluoromethyl) (2-pyridyl)]amino}-3-(ethoxymethyl)-4-methylazoline-2,5-dione] | 
156 | CCCCC1=C(C)C(=O)N(Nc2ccc(C(F)(F)F)c(Cl)n2)C1=O [Compound S03448, 3-butyl-1-{[6-chloro-5-(trifluoromethyl) (2-pyridyl)]amino}-4-methylazoline-2,5-dione] | 
156 | CC1=C(CCC2(C)OCCO2)C(=O)N(Nc2ccc(C(F)(F)F)c(Cl)n2)C1=O [Compound S03456, 1-{[6-chloro-5-(trifluoromethyl) (2-pyridyl)]amino}-4-methyl-3-[2-(2-methyl (1,3-dioxolan-2-yl))ethyl]azoline-2,5-dione] | 
60 | CCCC(O)CCC1=C(C)C(=O)N(Nc2ccc(C(F)(F)F)c(Cl)n2)C1=O (stereo not shown) [Compound S03552, 1-{[6-chloro-5-(trifluoromethyl)(2-pyridyl)]amino}-4-(3-hydroxyhexyl)-3-methylazoline-2,5-dione] | 
120 | COCCOCC1=C(C)C(=O)N(Nc2ccc(C(F)(F)F)c(Cl)n2)C1=O [Compound S03742, 1-{[6-chloro-5-(trifluoromethyl)(2-pyridyl)]amino}-3-[(2-methoxyethoxy)methyl]-4-methylazoline-2,5-dione] | 
60 | CCC(O)CCC1=C(C)C(=O)N(Nc2ccc(C(F)(F)F)c(Cl)n2)C1=O (stereo not shown) [Compound S03745, 1-{[6-chloro-5-(trifluoromethyl)(2-pyridyl)]amino}-4-(3-hydroxypentyl)-3-methylazoline-2,5-dione] | 
60 | CC1=C(CCOCC(C)C)C(=O)N(Nc2ccc(C(F)(F)F)c(Cl)n2)C1=O [Compound S03955, 1-{[6-chloro-5-(trifluoromethyl)(2-pyridyl)]amino}-4-methyl-3-[2-(2-methylpropoxy)ethyl]azoline-2,5-dione] | 
40 | CCOCCC1=C(C)C(=O)N(Nc2ccc(C(F)(F)F)c(Cl)n2)C1=O [Compound S03960, 1-{[6-chloro-5-(trifluoromethyl)(2-pyridyl)]amino}-3-(2-ethoxyethyl)-4-methylazoline-2,5-dione] | 
< 19 | CC1=C(COCC(C)(C)C)C(=O)N(Nc2ccc(C(F)(F)F)c(Cl)n2)C1=O [Compound S03962, 3-[(2,2-dimethylpropoxy)methyl]-1-{[6-chloro-5-(trifluoromethyl) (2-pyridyl)]amino}-4-methylazoline-2,5-dione] | 
< 19 | CC1=C(COCC(C)C)C(=O)N(Nc2ccc(C(F)(F)F)c(Cl)n2)C1=O [Compound S03963, 1-{[6-chloro-5-(trifluoromethyl)(2-pyridyl)]amino}-4-methyl-3-[(2-methylpropoxy)methyl]azoline-2,5-dione] | 
40 | CCCOCCC1=C(C)C(=O)N(Nc2ccc(C(F)(F)F)c(Cl)n2)C1=O [Compound S04034, 1-{[6-chloro-5-(trifluoromethyl)(2-pyridyl)]amino}-3-methyl-4-(2-propoxyethyl)azoline-2,5-dione] | 
